Key:
[1] = design: species or system rats; conditions: rat, in vivo
Method: Studies of the disposition of compound 11 ((3′R,4′R)-3′,4′-di-O-(S)-(−)-camphanoyl-3-hydroxymethyl-4-methyl-(+)-cis-khellactone) and 4-methyl-DCK ((3′R,4′R)-3′,4′-di-O-(S)-(−)-camphanoyl-4-methyl-(+)-cis-khellactone) were conducted in rats. 4-Methyl-DCK can be prepared, for example, as described in U.S. Pat. No. 5,847,165. The rats ordered from Charles River with jugular catheters in place were allowed to acclimate for one to two days prior to use. The venous catheter was kept patent by flushing daily with heparin solution. […]
Reversed phase HPLC was conducted with an ODS, 5 μM particle size, 150×10 mm Axxiom column (Thompson Instruments, Chantilly, Va.) using 55% acetonitrile and water as the mobile phase with 25 mM acetic acid buffer at 1.5 mL/min. Detection was carried out at 320 nm (λmax) for UV detection and at an excitation wavelength of 320 nm. The equipment for HPLC was an HP 1100 system with UV and quantitative analysis was performed using the HP Chemstation. […]
Weighed amounts (approximately 7-8 mg) of 4-methyl-DCK were suspended in 1 mL of 10% Tween 80/water, then administered to two rats (250-300 g) by oral gavage using a feeding needle to provide an oral dose of 25 mg/kg. Blood samples (0.3 mL) were collected at 0, 0.25, 0.50, 0.75, 1.0, 1.5, 2, 4, 8, and 23 hours following the oral dosing. Approximately 0.01 mL of heparin was added to each sample. The samples were then centrifuged to collect 0.10 mL of plasma. The plasma samples were frozen at −20° C. prior to analysis. The samples were thawed and analyzed by reversed phase HPLC within two weeks of collection.
Reversed phase HPLC was conducted with an ODS, 5 μM particle size, 150×10 mm Axxiom column (Thompson Instruments, Chantilly, Va.) using 60% acetonitrile/0.1% TFA in water as the mobile phase. Detection was carried out at 320 nm (λmax) for UV detection. The equipment for HPLC was an HP 1050 quaternary HPLC pump, an HP 1050 UV detector at 320 nm and range 0.2, an HP 3390 integrator, and a BioRad Model AS-100 autosampler.
Standard curves were prepared by addition of appropriate diluted stock solutions of 4-methyl-DCK to 0.10 mL plasma (pooled human plasma) to provide concentration of zero, and 0.05 to 20 μg/mL in a 13×100 mm culture tube. Internal standard solution (0.025 mL of 0.01 mg/mL DCK) was then added to each tube. The spiked samples were briefly vortexes, then allowed to equilibrate for at least 10 minutes prior to further workup. […]
The HPLC assay was partially validated to have a range of 0.125 to 20 μg/mL in plasma, with a detection limit of 50 ng/mL. Recovery from plasma was determined by spiking 4-methyl-DCK into plasma the same way as was done in the preparation of the standard curve, and preparing samples as described above, but adding DCK as an external standard just prior to injection. […]

mock-infected H9 cells = experiment: Cytotoxicity in mock-infected (uninfected) H9 cells; type: cell-based
Method: (§1) The biological evaluation of HIV-1 inhibition was carried out according to established protocols, (Kashiwada, Y., et al., J. Med. Chem. 39:1016-1017 (1996); Hashimoto, F., et al., Bioorg. & Med. Chem. 5:2133-2143 (1997)). The T cell line, H9, was maintained in continuous culture log-phase growth in complete medium (RPMI 1640 with 10% fetal calf serum supplemented with L-glutamine at 5% CO2 and 37° C.). Test samples were first dissolved in dimethyl sulfoxide at a concentration of 10 mg/ml to generate master stocks with dilutions made into tissue culture media to generate working stocks. The following drug concentrations were used routinely for screening: 50, 5, and 0.5 μg/mL. For agents found to be active, additional dilutions were prepared for subsequent testing so that an accurate EC50 value (defined below) could be determined. As the test samples were being prepared, an aliquot of the H9 cell line was infected with HIV-1 (IIIB isolate) while a second aliquot was mock-infected with complete medium. […] An amount of virus equal to approximately 6.25×10^4 TCID50 was added to the first aliquot of 3.5×10^6H9 cells. The second aliquot received tissue culture medium only, and these mock-infected cells were used for toxicity determinations (IC50 defined below). After a 4 h incubation at 37° C. and 5% CO2, both cell populations were washed three times with fresh medium and then added to the appropriate wells of a 96-well plate containing various concentrations of the test drug or tissue culture medium (positive infected control/negative drug control). In addition, AZT was assayed during each experiment as a positive drug control. The plates were incubated at 37° C. and 5% CO2 for 5 days. Cell-free culture supernatants were collected on Day 5 for use in a p24 antigen-capture ELISA assay to determine virus replication. p24 is the core protein of HIV and therefore is an indirect measure of the amount of virus present in the culture supernatants. Toxicity was determined using a viable dye method (XTT) on mock-infected H9 cells that were treated with test sample, AZT or no drug. If a test sample suppressed viral replication and was toxic to less than 50% of the cells, its effects were reported in the following terms: IC50, the concentration of test sample which was toxic to 50% of the mock-infected H9 cells; EC50, the concentration of the test sample which was able to suppress HIV replication by 50%; and Therapeutic Index (TI), the ratio of IC50 to EC50.
(§2) Compounds of the present invention were assayed for anti-HIV activity according to the following assay procedures. The T cell line, H9, and the promonocytic cell line, U937, were maintained separately in continuous culture with complete medium (RPMI 1640 with 10% fetal calf serum) at 5% CO2 and 37° C. The cell lines were used in experiments only when in the logarithmic phase of growth, whereas uninfected peripheral blood mononuclear cells (PBMCs) were first stimulated with PHA (1 μg/mL) for three days. All cell targets were incubated with HIV-1 (IIIB isolate, 1×10^6 TCID50/mL) for one hour at 37° C. and 5% CO2. The cell lines and PBMCs were washed thoroughly to remove unadsorbed virions and resuspended at 4×10^5 cells/mL in complete medium or complete medium with 10% v/v interleukin 2 (IL-2), respectively. […] aliquots were placed into wells of 96-well tissue culture plates containing an equal volume of test compounds (diluted in the appropriate culture medium). The toxicity of each compound was assessed by determining the viability of compound-exposed uninfected cells after five days at 37° C. and 5% CO2. A p24 antigen ELISA assay was used to determine the level of virus released in the medium of the HIV-infected cultures. The p24 antigen assay used a HIV-1 anti-p24 specific monoclonal antibody as the capture antibody coated onto 96-well plates. […]

HIV-1 (IIIB isolate) = experiment: Anti-HIV activity in H9 lymphocytes (p24 antigen ELISA); type: cell-based; conditions: H-9 lymphocytes; for Anti-HIV Activity EC50: HIV-1 IIIB, p24 ELISA, day 5, average of at least two experiments; for Therapeutic Index (TI = IC50/EC50): ratio of IC50 to EC50
Method: as §1, §2

[2] = system: HIV-1 replication in H9 lymphocyte cells; conditions: background art, cited from earlier work; for EC50: read-out: EC50 against HIV-1 replication

Anti-HIV Activity EC50 (HIV-1 (IIIB isolate)) [µg/mL] | Compound | Cytotoxicity IC50 (mock-infected H9 cells) [µg/mL] | Therapeutic Index (TI = IC50/EC50) (HIV-1 (IIIB isolate)) | EC50 [2] [nM] | therapeutic index (TI) [2] | further results
– | Cc1cc(=O)oc2c3c(ccc12)OC(C)(C)[C@H](OC(=O)[C@@]12CCC(C)(C(=O)O1)C2(C)C)[C@@H]3OC(=O)[C@@]12CCC(C)(C(=O)O1)C2(C)C (relative stereo) [Compound 4-methyl-DCK, (3′R,4′R)-3′,4′-di-O-(S)-(−)-camphanoyl-4-methyl-(+)-cis-khellactone, reference compound] | – | – | – | – | concentration in plasma after oral administration ([1]; po, 25 mg/kg): less than 50 ng/mL
0.0161 | Cc1c(CO)c(=O)oc2c3c(ccc12)OC(C)(C)[C@H](OC(=O)[C@@]12CCC(C)(C(=O)O1)C2(C)C)[C@@H]3OC(=O)[C@@]12CCC(C)(C(=O)O1)C2(C)C (relative stereo) [Compound 11, (3′R,4′R)-3′,4′-Di-O-(S)-(−)-camphanoyl-3-hydroxymethyl-4-methyl-(+)-cis-khellactone] | 21.2 | 1,320 | – | – | oral bioavailability (Foral) [1]: 15%; clearance ([1]; iv): 83 mL/min/kg; time at which Cmax occurs ([1]; po): 120 to 240 min
– | CC1(C)Oc2ccc3ccc(=O)oc3c2[C@@H](OC(=O)[C@@]23CCC(C)(C(=O)O2)C3(C)C)[C@H]1OC(=O)[C@@]12CCC(C)(C(=O)O1)C2(C)C (relative stereo) [DCK, 3′,4′-di-O-(S)-(−)-camphanoyl-(3′R,4′R)-(+)-cis-khellactone] | – | – | 0.256 | 136,719 | –
0.045 | Cc1cn([C@H]2C[C@H](N=[N+]=[N-])[C@@H](CO)O2)c(=O)[nH]c1=O [AZT, reference compound] | 1875 | 41,667 | – | – | –
– | CC(=O)O[C@@H]1[C@H](OC(=O)CC(C)C)c2c(ccc3ccc(=O)oc23)OC1(C)C [suksdorfin, (3′R,4′R)-3′-acetoxy-4′-isovaleryloxy-(+)-cis-khellactone] | – | – | 1300 | 140 | –
